In the CheMixHub drug solubility set:

Assay: xn = mol fraction of the nth substance listed, in the solute-free solvent

O=C(O)CC(O)C(=O)O (stereo not drawn) + C1CCOC1 + CC#N
solubility (g/100 g solution)
Conditions | 278.15 K | 283.15 K | 288.15 K | 293.15 K | 298.15 K | 303.15 K | 308.15 K | 313.15 K | 318.15 K | 323.15 K
x2 = 0.1246 | 19.5 | 21.2 | 23.2 | 25.3 | 26.9 | 29.2 | 31.6 | 34.1 | 36.6 | 39.6
x2 = 0.1961 | 27.1 | 28.6 | 30.5 | 32.5 | 34.7 | 37.1 | 39.2 | 41.7 | 44.3 | 47
x2 = 0.2751 | 29.8 | 32 | 34 | 36 | 38 | 40.2 | 42.3 | 45 | 47.2 | 49.9
x2 = 0.3628 | 33.2 | 34.9 | 36.9 | 38.9 | 40.9 | 43 | 45.1 | 47.7 | 49.9 | 52.5
x2 = 0.4606 | 34.6 | 36 | 37.8 | 39.7 | 41.5 | 43.5 | 45.9 | 48.1 | 50.5 | 53.4
x2 = 0.5705 | 35.7 | 37.3 | 39.1 | 41.1 | 43.2 | 45.5 | 47.8 | 50.2 | 52.9 | 55.6
x2 = 0.6949 | 37.8 | 39 | 40.6 | 42.3 | 44.3 | 46 | 48.3 | 50.3 | 52.7 | 55.5

Cc1c(Br)cccc1C(=O)O + C1CCOC1 + CCOC(C)=O
solubility (g/100 g solution)
Conditions | x2 = 0.161 | x2 = 0.318 | x2 = 0.471 | x2 = 0.62 | x2 = 0.765 | x2 = 0.907
278.15 K | 11.6 | 16.7 | 21.6 | 26.2 | 30 | 35
283.15 K | 12.9 | 18.1 | 23.4 | 28.1 | 32 | 37.2
288.15 K | 14.2 | 19.7 | 24.9 | 29.9 | 33.8 | 39.1
293.15 K | 15.4 | 21.3 | 26.6 | 31.7 | 35.6 | 41.2
298.15 K | 16.9 | 22.7 | 28.2 | 33.4 | 37.3 | 43
303.15 K | 18.3 | 24.4 | 30 | 35.3 | 39 | 44.9
308.15 K | 19.8 | 26 | 31.6 | 36.9 | 40.6 | 46.5
313.15 K | 21.6 | 27.6 | 33.3 | 38.6 | 42.1 | 48.1
318.15 K | 23.4 | 29.4 | 35.1 | 40.2 | 43.6 | 49.6
323.15 K | 25.3 | 31.3 | 36.7 | 41.8 | 44.9 | 51.1
328.15 K | 27.6 | 33.3 | 38.5 | 43.6 | 46.2 | 52.5

O=C(O)CC(O)C(=O)O (stereo not drawn) + C1CCOC1 + CCOC(C)=O
solubility (g/100 g solution)
Conditions | 278.15 K | 283.15 K | 288.15 K | 293.15 K | 298.15 K | 303.15 K | 308.15 K | 313.15 K | 318.15 K | 323.15 K
x2 = 0.234 | 9.32 | 10.1 | 11 | 12 | 13.2 | 14.4 | 15.8 | 17.2 | 18.6 | 20.4
x2 = 0.3437 | 13.6 | 14.7 | 15.9 | 17.2 | 18.7 | 20.4 | 22.1 | 24 | 26.1 | 28.7
x2 = 0.4489 | 19.3 | 20.5 | 21.8 | 23.2 | 24.7 | 26.3 | 27.9 | 29.9 | 31.9 | 34.2
x2 = 0.55 | 24.6 | 26 | 27.6 | 29 | 30.8 | 32.7 | 34.6 | 36.6 | 39.2 | 41.8
x2 = 0.647 | 27.6 | 28.9 | 30.5 | 32.2 | 34.2 | 36.3 | 38.4 | 40.8 | 43.5 | 46.4
x2 = 0.7403 | 30.1 | 31.8 | 33.3 | 34.9 | 36.9 | 38.8 | 40.9 | 43.3 | 46 | 48.7
x2 = 0.8302 | 34.8 | 36 | 37.7 | 39 | 40.7 | 42.6 | 44.4 | 46.4 | 48.7 | 51.4

CN1CCN(C2=Nc3cc(Cl)ccc3Nc3ccccc32)CC1 + C1CCOC1 + Cc1ccccc1
solubility (g/100 g solution)
Conditions | x2 = 0.1243 | x2 = 0.242 | x2 = 0.3539 | x2 = 0.4601 | x2 = 0.5602 | x2 = 0.6569 | x2 = 0.749 | x2 = 0.8361 | x2 = 0.9197
293.15 K | 3.93 | 5.65 | 8.04 | 9.98 | 13 | 15.3 | 17.5 | 20.9 | 23.9
298.15 K | 4.3 | 6.76 | 8.83 | 11.7 | 14.2 | 16.5 | 20.5 | 22.2 | 25.6
303.15 K | 5.04 | 7.34 | 9.84 | 13.1 | 15.8 | 18.8 | 21.9 | 25 | 28.1
308.15 K | 6.11 | 8.39 | 11.2 | 14.4 | 17.5 | 20.6 | 24 | 26 | 29.8
313.15 K | 7.2 | 9.63 | 12.2 | 16.4 | 19.5 | 22.7 | 25.9 | 29 | 31.9
318.15 K | 8.19 | 10.7 | 14.6 | 18.1 | 21.4 | 24.9 | 27.9 | 30.5 | 33.7
323.15 K | 8.82 | 12.2 | 15.9 | 20.1 | 23.6 | 27 | 29.6 | 33.1 | 36.6

CC(=O)N1CCN(c2ccc(OCC3COC(Cn4ccnc4)(c4ccc(Cl)cc4Cl)O3)cc2)CC1 (stereo not drawn) + C1COCCO1 + O
solubility (g/100 g solution)
Conditions | x2 = 0.02222 | x2 = 0.04865 | x2 = 0.0806 | x2 = 0.12 | x2 = 0.1698 | x2 = 0.2348 | x2 = 0.3231 | x2 = 0.45 | x2 = 0.648
293.15 K | 0.00759 | 0.0327 | 0.155 | 0.537 | 2.07 | 6.72 | 16.6 | 22.9 | 18.7
298.15 K | 0.00818 | 0.0386 | 0.171 | 0.692 | 2.58 | 8.67 | 18.8 | 25.4 | 20.6
303.15 K | 0.00845 | 0.0485 | 0.197 | 0.87 | 3.25 | 10.9 | 21.1 | 27.8 | 22.6
308.15 K | 0.00894 | 0.0594 | 0.216 | 1.04 | 4.24 | 13.4 | 24.4 | 29.9 | 24.3
313.15 K | 0.00948 | 0.07 | 0.25 | 1.3 | 5.11 | 16 | 27.2 | 32.5 | 26.7

O=C(O)CC(O)C(=O)O (stereo not drawn) + CC#N + CCCCOC(C)=O
solubility (g/100 g solution)
Conditions | 278.15 K | 283.15 K | 288.15 K | 293.15 K | 298.15 K | 303.15 K | 308.15 K | 313.15 K | 318.15 K | 323.15 K
x2 = 0.4143 | 1.23 | 1.39 | 1.63 | 1.79 | 2.06 | 2.36 | 2.73 | 3.15 | 3.71 | 4.37
x2 = 0.5481 | 1.54 | 1.77 | 2.1 | 2.45 | 2.86 | 3.39 | 3.96 | 4.62 | 5.41 | 6.44
x2 = 0.6535 | 2.05 | 2.38 | 2.8 | 3.32 | 3.93 | 4.61 | 5.48 | 6.51 | 7.78 | 9.24
x2 = 0.7389 | 2.71 | 3.15 | 3.56 | 4.05 | 4.88 | 5.66 | 6.77 | 7.85 | 9.29 | 11.2
x2 = 0.8093 | 3.25 | 3.73 | 4.29 | 4.93 | 5.81 | 6.58 | 7.95 | 9.34 | 10.9 | 13.2
x2 = 0.8685 | 3.84 | 4.31 | 4.89 | 5.73 | 6.8 | 8.05 | 9.49 | 11.3 | 13.5 | 15.8
x2 = 0.9188 | 4.19 | 4.92 | 5.74 | 6.72 | 8.05 | 9.62 | 11.4 | 13.7 | 16.4 | 19.4

CN1CCN(C2=Nc3cc(Cl)ccc3Nc3ccccc32)CC1 + CC#N + O
solubility (g/100 g solution)
Conditions | x2 = 0.04651 | x2 = 0.0989 | x2 = 0.1583 | x2 = 0.2264 | x2 = 0.3051 | x2 = 0.397 | x2 = 0.506 | x2 = 0.6372 | x2 = 0.798
278.15 K | 0.00519 | 0.0208 | 0.0473 | 0.113 | 0.207 | 0.366 | 0.609 | 0.903 | 1.23
283.15 K | 0.00691 | 0.0265 | 0.0589 | 0.138 | 0.248 | 0.431 | 0.707 | 1.04 | 1.39
288.15 K | 0.00905 | 0.034 | 0.0735 | 0.168 | 0.296 | 0.507 | 0.817 | 1.18 | 1.55
293.15 K | 0.0119 | 0.0432 | 0.0905 | 0.2 | 0.347 | 0.589 | 0.938 | 1.34 | 1.73
298.15 K | 0.0151 | 0.0532 | 0.111 | 0.238 | 0.41 | 0.682 | 1.08 | 1.5 | 1.95
303.15 K | 0.0193 | 0.0662 | 0.135 | 0.283 | 0.481 | 0.794 | 1.22 | 1.7 | 2.16
308.15 K | 0.0247 | 0.0831 | 0.164 | 0.336 | 0.558 | 0.91 | 1.39 | 1.92 | 2.39
313.15 K | 0.0308 | 0.101 | 0.197 | 0.398 | 0.642 | 1.05 | 1.56 | 2.11 | 2.64
318.15 K | 0.0384 | 0.123 | 0.233 | 0.465 | 0.746 | 1.19 | 1.75 | 2.37 | 2.91
323.15 K | 0.0473 | 0.15 | 0.281 | 0.542 | 0.855 | 1.35 | 1.96 | 2.63 | 3.2
328.15 K | 0.059 | 0.178 | 0.335 | 0.625 | 0.985 | 1.53 | 2.18 | 2.9 | 3.49
